Test results published in US8017629B2, “Compounds and uses thereof in modulating amyloid β” (Neurogenetic Pharmaceuticals, Inc., priority 2003, dated 2011).

Tested on: Aβ42 levels in the extracellular medium
Test: FRET (HTRF) assay, Aβ42 level of the extracellular medium of SH-SY5Y-APP cells
Assay type: cell-based
Settings: Homo sapiens, concentration at which reduction of Aβ42 level was half of the maximum reduction, read-out: Ab42 Potency
Procedure: Compounds were evaluated for activity in modulating Aβ42 and Aβ40 levels in the extracellular medium using a homogeneous time-resolved fluorescence (HTRF) assay as follows.
For the HTRF assay, either 5 or 10 μl of supernatant from treated cells was added to 10 or 15 μl of labeled antibody pairs, for a total volume of 20 μl, and incubated for 20-24 hours at 4° C. The labeled antibody pairs were either 8000 pg B436-XL665 and 400 pg B113 Europium, for assessing Aβ40 levels, or 8000 pg B436-XL665 and 400 pg A387 Europium, for assessing Aβ42 levels, diluted in 50 mM NaPO4, 0.2% BSA, 0.5M KF, pH 7. The fluorescence was read on a BMG Rubystar at 620 nm and 665 nm.

| SMILES | EC50 |
| --- | --- |
| CCN(CC)c1ccc(-c2csc(Nc3ccc(O)cc3)n2)cc1 [Compound 123] | 10.1 to 30 µM |
| Cc1cn(-c2ccc(-c3csc(Nc4cc(C(C)C)ccc4C)n3)cc2)cn1 [Compound 326] | < 0.2 µM |
| CCCN(CC)c1ccc(C)c(Nc2nc(-c3ccc(-n4cnc(C)c4)nc3)cs2)c1 [Compound 284] | < 0.2 µM |
| Cc1cn(-c2ccc(-c3nc(Nc4cc(-n5cccc5)ccc4C)sc3C)cc2)cn1 [Compound 278] | 0.2 to 1 µM |
| CC(C)N1CCN(C(=O)c2ccc(Nc3nc(-c4ccc(N5CCN(C)CC5)cc4)cs3)cc2)CC1 [Compound 192] | 5.1 to 10 µM |
| CNCCN(C)c1ccc(Nc2nc(-c3ccc(-n4ccnc4)cc3)cs2)c(C(F)(F)F)c1 [Compound 224] | 1.1 to 5 µM |
| Cc1cn(-c2ccc(-c3csc(Nc4cc(C)c(OCC5CC5)cc4C)n3)cc2)cn1 [Compound 280] | < 0.2 µM |
| CCN(CCOC)c1ccc(Nc2nc(-c3ccc(-n4cnc(C)c4)cc3C(F)(F)F)cs2)c(C)c1 [Compound 232] | 5.1 to 10 µM |
| COc1ccc(-c2csc(Nc3ccc(Br)cc3)n2)c(OC)c1 [Compound 129] | 0.2 to 1 µM |
| CN1CCN(c2ccc(-c3csc(Nc4ccc(I)cc4)n3)cc2)CC1 [Compound 126] | 1.1 to 5 µM |
| CCN(CCOC)c1ccc(Nc2nc(-c3ccc(-n4ccnc4)cc3)cs2)c(C)c1 [Compound 230] | 1.1 to 5 µM |
| CCc1ccc(C)nc1Nc1ccc(Nc2nc(-c3ccc(-n4ccnc4)cc3)cs2)c(C)c1 [Compound 209] | 5.1 to 10 µM |
| Cc1ccc(C)c(Nc2nc(-c3ccc(-n4ccnc4)cc3)cs2)c1 [Compound 302] | 0.2 to 1 µM |
| CCc1cc(N(CC)CC)ccc1Nc1nc(-c2ccc(-n3ccnc3)cc2)cs1 [Compound 241] | 1.1 to 5 µM |
| Cc1ccc(C)c(Nc2nc(-c3ccc(-n4cnc(C)c4)nc3)cs2)c1 [Compound 185] | < 0.2 µM |
| CCCN(C)c1ccc(C)c(Nc2nc(-c3ccc(-n4cnc(C)c4)cc3)cs2)c1 [Compound 348] | < 0.2 µM |
| Cc1cn(-c2ccc(-c3csc(Nc4cc5cn[nH]c5cc4C)n3)cn2)cn1 [Compound 331] | 5.1 to 10 µM |
| CN1CCN(C(=O)c2ccc(Nc3nc(-c4ccc(N5CCN(C)CC5)cc4)cs3)cc2)CC1 [Compound 191] | 1.1 to 5 µM |
| Cc1cc(NCCN(C)C)ccc1Nc1nc(-c2ccc(-n3ccnc3)cc2)cs1 [Compound 202] | 1.1 to 5 µM |
| FC(F)(F)c1cc(N2CC=CC2)ccc1Nc1nc(-c2ccc(-n3ccnc3)cc2)cs1 [Compound 221] | 1.1 to 5 µM |
| Cc1ccc(CO)cc1Nc1nc(-c2ccc(-n3cnc(Br)c3)cc2)cs1 [Compound 301] | 0.2 to 1 µM |
| COc1cc(C)c(Nc2nc(-c3ccc(-n4ccnc4)nc3)cs2)cc1C(C)C [Compound 319] | < 0.2 µM |
| CCN(CC)c1ccc(Nc2nc(-c3ccc(-n4cnc(C)c4)nc3)cs2)c(C)c1 [Compound 247] | < 0.2 µM |
| CCN(CC)c1ccc(C)c(Nc2nc(-c3ccc(-n4cnc(C)c4)cc3)cs2)c1 [Compound 268] | < 0.2 µM |
| CCCN(CC)c1ccc(C)c(Nc2nc(-c3ccc(-n4cnc(C)c4)cc3)cs2)c1 [Compound 337] | < 0.2 µM |
| CCc1cc(N2CCOCC2)ccc1Nc1nc(-c2ccc(-n3ccnc3)cc2)cs1 [Compound 239] | 1.1 to 5 µM |
| COc1ccc(-c2csc(Nc3ccc(OC)c(OC)c3)n2)c(OC)c1 [Compound 101] | 1.1 to 5 µM |

| SMILES | EC50 |
| --- | --- |
| CN1CCN(c2ccc(-c3csc(Nc4ccc(Cl)c(Cl)c4)n3)cc2)CC1 [Compound 139] | 0.2 to 1 µM |
| CN1CCC(CNc2ccc(Nc3nc(-c4ccc(-n5ccnc5)cc4)cs3)cc2)CC1 [Compound 188] | 1.1 to 5 µM |
| CN(C)S(=O)(=O)c1ccc(-c2csc(Nc3ccc(Cl)cc3)n2)cc1 [Compound 149] | 5.1 to 10 µM |
| CSc1cccc(Nc2nc(-c3ccc(N4CCCC4)cc3)cs2)c1 [Compound 166] | 0.2 to 1 µM |
| CCN(CCO)c1ccc(Nc2nc(-c3ccc(-n4ccnc4)cc3)cs2)c(C)c1 [Compound 203] | 1.1 to 5 µM |
| COc1ccc(C)c(Nc2nc(-c3ccc(-n4ccnc4)cc3)cs2)c1 [Compound 351] | < 0.2 µM |
| CCN(CC)c1ccc(C)c(Nc2nc(-c3ccc(-n4cc(C)cn4)cc3)cs2)c1 [Compound 307] | 1.1 to 5 µM |
| CCN(CC)c1ccc(-c2csc(Nc3ccc(OC)cc3OC)n2)cc1 [Compound 122] | 1.1 to 5 µM |
| Cc1ccc(N(C)CC2CC2)cc1Nc1nc(-c2ccc(-n3ccnc3)cc2)cs1 [Compound 304] | < 0.2 µM |
| Cc1cn(-c2ccc(-c3nc(Nc4cc(C)c(C)cc4C)sc3C)cc2Br)cn1 [Compound 243] | 1.1 to 5 µM |
| CCN(CC)c1ccc(C)c(Nc2nc(-c3cnc(-n4cnc(C)c4)nc3)cs2)c1 [Compound 341] | < 0.2 µM |
| CCN(CC)c1ccc(N(CC)c2nc(-c3ccc(-n4ccnc4)cc3)cs2)c(C)c1 [Compound 176] | 5.1 to 10 µM |
| CCN(CC)c1ccc(Nc2nc(-c3ccc(-n4cc(C(C)=O)nn4)cc3)cs2)c(C)c1 [Compound 274] | 1.1 to 5 µM |
| CCN(CC)c1ccc(Nc2nc(-c3ccc(-n4cnc(C)c4)cc3C(F)(F)F)c(C)s2)c(C)c1 [Compound 205] | 1.1 to 5 µM |
| CCN(CC)c1ccc(-c2csc(Nc3ccc4[nH]cnc4c3)n2)cc1 [Compound 158] | 10.1 to 30 µM |
| Cc1cn(-c2ccc(-c3csc(Nc4cc(-n5cccc5)ccc4C)n3)cn2)cn1 [Compound 277] | < 0.2 µM |
| CCN(CCO)c1ccc(Nc2nc(-c3ccc(-n4cnc(C)c4)cc3)cs2)c(C)c1 [Compound 204] | 0.2 to 1 µM |
| CN1CCN(c2ccc(-c3csc(Nc4ccc(N(C)C)cc4)n3)cc2)CC1 [Compound 117] | 5.1 to 10 µM |
| CN1CCC(CNc2ccc(Nc3nc(-c4ccc(-n5ccnc5)cc4)cs3)c(C(F)(F)F)c2)CC1 [Compound 216] | 5.1 to 10 µM |
| CCCN(c1ccc(Cl)c(Cl)c1)c1nc(-c2ccc(-n3ccnc3)cc2)cs1 [Compound 174] | 10.1 to 30 µM |
| Clc1cc(Cl)c(Nc2nc(-c3ccc(-n4ccnc4)cc3)cs2)c(Cl)c1 [Compound 213] | 1.1 to 5 µM |
| CN1CCN(c2ccc(-c3csc(Nc4ccc(Br)cc4)n3)cc2)CC1 [Compound 138] | 10.1 to 30 µM |
| CCN(CC)c1cc(Nc2nc(-c3ccc(-n4ccnc4)nc3)cs2)c(C)cc1C [Compound 320] | < 0.2 µM |
| COc1ccc(Nc2nc(-c3ccc4c(c3)OCCO4)cs2)cc1OC [Compound 110] | 5.1 to 10 µM |
| c1cn(-c2ccc(-c3csc(Nc4ccc5[nH]ccc5c4)n3)cc2)cn1 [Compound 143] | 1.1 to 5 µM |
| CCN(CCOC)c1ccc(Nc2nc(-c3ccc(-n4cnc(C)c4)cc3)cs2)c(C)c1 [Compound 231] | 0.2 to 1 µM |
| CN(C)S(=O)(=O)c1ccc(-c2csc(Nc3ccc4[nH]cnc4c3)n2)cc1 [Compound 157] | 10.1 to 30 µM |

| SMILES | EC50 |
| --- | --- |
| CN1CCN(c2ccc(-c3csc(Nc4ccc5[nH]ncc5c4)n3)cc2)CC1 [Compound 141] | 1.1 to 5 µM |
| Cc1cn(-c2ccc(-c3csc(Nc4cc(N5CCOCC5)ccc4C)n3)cn2)cn1 [Compound 276] | < 0.2 µM |
| Cc1ccc(C(C)C)cc1Nc1nc(-c2ccc(-n3ccnc3)nc2)cs1 [Compound 325] | 1.1 to 5 µM |
| CCN(CC)c1ccc(Nc2nc(-c3cnc(-n4cnc(C)c4)nc3)cs2)c(C)c1 [Compound 342] | < 0.2 µM |
| CSc1cccc(Nc2nc(-c3ccc4c(c3)OCCO4)cs2)c1 [Compound 167] | 5.1 to 10 µM |
| COc1ccc(Nc2nc(-c3ccc(N4CCCC4)cc3)cs2)cc1OC [Compound 113] | 5.1 to 10 µM |
| CN1CCN(c2ccc(-c3csc(Nc4ccc(Oc5ccccc5)cc4)n3)cc2)CC1 [Compound 142] | 1.1 to 5 µM |
| Cc1cn(-c2ccc(-c3csc(Nc4cc(N(C)CC5CC5)ccc4C)n3)cn2)cn1 [Compound 306] | < 0.2 µM |
| Cc1ccc(Nc2nc(-c3ccc(N4CCN(C)CC4)cc3)cs2)cc1C [Compound 195] | 10.1 to 30 µM |
| CCN(CC)c1ccc(Nc2nc(-c3ccc(N4CCN(C)CC4)nc3)cs2)c(C)c1 [Compound 329] | 10.1 to 30 µM |
| CCN(C)c1cc(Nc2nc(-c3ccc(-n4cnc(C)c4)nc3)cs2)c(C)cc1C [Compound 336] | < 0.2 µM |
| CCN(CC)c1ccc(F)c(Nc2nc(-c3ccc(-n4cnc(C)c4)nc3)cs2)c1 [Compound 314] | < 0.2 µM |
| CCN(CC)c1cc(C)c(Nc2nc(-c3ccc(-n4ccnc4)cc3)cs2)cc1C [Compound 292] | < 0.2 µM |
| COc1ccc(-c2csc(Nc3ccc(C)c(Cl)c3)n2)c(OC)c1 [Compound 194] | 1.1 to 5 µM |
| CCN(CC)c1ccc(Nc2nc(-c3ccc(-c4c[nH]c(C)n4)cc3)cs2)c(C)c1 [Compound 248] | 5.1 to 10 µM |
| CCN(CC)c1ccc(C)c(Nc2nc(-c3ccc(-n4cc(C)nn4)cc3)cs2)c1 [Compound 346] | < 0.2 µM |
| CCN(CC)c1ccc(Nc2nc(-c3ccc(-n4cnc(Br)c4)cc3)cs2)c(C)c1 [Compound 199] | 0.2 to 1 µM |
| c1cc2c(cc1Nc1nc(-c3ccc4c(c3)OCO4)cs1)OCO2 [Compound 105] | 1.1 to 5 µM |
| CCN(CC)c1ccc(Nc2nc(-c3ccc(-n4ccnc4)cc3)cs2)c(C)c1 [Compound 133] | 0.2 to 1 µM |
| Cc1cc(NCc2ccccn2)ccc1Nc1nc(-c2ccc(-n3ccnc3)cc2)cs1 [Compound 208] | 5.1 to 10 µM |
| Cc1ccc(Nc2nc(-c3ccc(-n4ccnc4)cc3)co2)c(C)c1 [Compound 345] | 5.1 to 10 µM |
| Clc1ccc(Nc2nc(-c3ccc(-n4ccnc4)cc3)cs2)cc1Cl [Compound 173] | 1.1 to 5 µM |
| COc1cc(Nc2nc(-c3ccc(F)cc3)cs2)cc(OC)c1OC [Compound 108] | 5.1 to 10 µM |
| Cc1cn(-c2ccc(-c3csc(Nc4cc(N5CCCCC5)ccc4C)n3)cn2)cn1 [Compound 283] | < 0.2 µM |
| COc1cccc(Nc2nc(-c3ccc(-n4ccnc4)cc3)cs2)c1 [Compound 181] | 10.1 to 30 µM |
| Cc1cc(N2CCN(C)CC2)ccc1Nc1nc(-c2ccc(-n3ccnc3)cc2)cs1 [Compound 200] | 1.1 to 5 µM |
